24 compounds from PubChem BioAssay (NCI) can be followed below.

Assay in all cases: NCI-60 cell line screen, 48 h
The test system of assay [1] is SF-295 CNS.
The subject of assay [2] is MDA-MB-231 breast.
Assay [3] has as its system K-562 leukemia.
For assay [4], the system named is SF-268 CNS.
For assay [5], the system named is EKVX NSCLC.
The test system of assay [6] is UACC-62 melanoma.
Assay [7] deals with SN12C renal.
In assay [8] the test system is OVCAR-4 ovarian.
Assay [9] deals with 786-0 renal.
Assay [10] has as its system RPMI-8226 leukemia.
Assay [11] has as its system HL-60(TB) leukemia.
The subject of assay [12] is SNB-75 CNS.
The subject of assay [13] is NCI-H226 lung.

Structures are written as SMILES.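 Results reflect a 48-hour exposure of cells in 96-well plates to compound at five concentrations. TGI marks complete inhibition of growth.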 A value given as a limit tells only on which side of the number the result lay.

In the case of `CCCCCCCCCCCCCCCCCCNC(=O)C(N)Cc1ccc(OCc2ccccc2)cn1` (configuration not stated), the TGI came to 59.1 µM in assay [1]; 38.3 µM in assay [2]; 95.1 µM in assay [3]; 43.4 µM in assay [4]; 46.8 µM in assay [5]; 32.2 µM in assay [6]. In addition, the TGI in assay [7] worked out at 49.3 µM; in [8], 34 µM; in [9], 41.6 µM; in [10], 80.6 µM; in assay [11], 37.1 µM; in [12] it was 47.4 µM.
Take `[N-]=[N+]=Nc1ccccc1C(=O)N1C(=O)c2ccccc2C(=O)N(C(=O)c2ccccc2N=[N+]=[N-])c2ccccc21`: the TGI in [1], in [2], in assay [13], in assay [3], in [4] and in assay [5] was greater than 100 µM throughout. Also, the TGI in assay [6] is greater than 100 µM; in assay [7] it was greater than 100 µM; in [8], greater than 100 µM; in assay [9], greater than 100 µM; in assay [10], greater than 100 µM; in assay [12], 64 µM.
In the case of `O=C1/C(=C/c2cccc(Br)c2)CCc2ccccc21`, the TGI in assay [1] was 28.5 µM; in [2] it was 35.9 µM; in [13], 31.1 µM; in [3], 29.9 µM; in [4] it was 21.8 µM; in assay [5] it was 32.7 µM. Further, the TGI in [6] amounted to 22.4 µM; in [7], 29.2 µM; in assay [8] it was 26.7 µM; in assay [9], 29.8 µM; in [11], 28.3 µM; in assay [12], 30 µM.
In the case of `O=C(O)c1nc2cc(C(F)(F)F)ccc2nc1Nc1ccc(F)cc1`, the TGI in assay [1] is 58.4 µM; in [2] it was 70.8 µM; in [13], greater than 100 µM; in assay [3], greater than 100 µM; in assay [4], greater than 100 µM; in assay [5] it was 89.6 µM. Also, the TGI is 31.1 µM in [6], 66 µM in [9], greater than 100 µM in [10] and 49.5 µM in [12].
Consider `COCCOC(=O)c1c(C)n([O-])c2cc(Cl)c(Cl)cc2[n+]1=O`, for which the TGI was found to be 84.2 µM in [1]; 53.8 µM in assay [2]; 34.7 µM in assay [3]; 59.1 µM in assay [4]; 36.8 µM in assay [5]; 36.4 µM in assay [6]. For the same compound, the TGI amounted to 70 µM in assay [7]; 30.8 µM in assay [8]; 85.1 µM in [9]; 18.8 µM in [10]; 32 µM in assay [11].
For the compound `Cn1c2ccccc2n2c(N=O)c(-c3ccccc3)nc12`, the TGI in [1], in [2], in assay [3], in assay [4], in assay [5] and in [6] was greater than 100 µM each time. Moreover, the TGI is greater than 100 µM in assay [7]; greater than 100 µM in assay [8]; greater than 100 µM in assay [9]; greater than 100 µM in assay [10]; greater than 100 µM in [11]; 49.8 µM in assay [12].
Consider `Cc1csc2[n+]1C(=O)/C(=C\c1ccc([N+](=O)[O-])cc1)S2`, for which the TGI in assay [1] is 65.1 µM; in assay [2], 68.6 µM; in [13] it was 26.9 µM; in assay [3], greater than 100 µM; in assay [4], 86.5 µM; in assay [6], 41 µM. Further, the TGI was 99.3 µM in assay [7]; greater than 100 µM in [8]; 71.8 µM in [9]; greater than 100 µM in assay [10]; 64.4 µM in assay [11]; 57.1 µM in [12].
Take `COC(=O)C1(C(=O)OC)Cc2ccc(OC)cc2C2=C1C(=O)c1ccccc1C2=O`: the TGI in assay [1] was determined as 8.44 µM; in assay [2], 4.34 µM; in [13] it was 36.9 µM; in assay [3], 4.37 µM; in assay [4], 26.2 µM; in assay [5] it was 19.1 µM. Besides, the TGI in assay [6] is 4.37 µM; in assay [7], 14.4 µM; in assay [8], 3.43 µM; in [9], greater than 47.9 µM; in assay [11] it was greater than 21.1 µM; in assay [12], 35.8 µM.
Take `NC(N)=N/N=C/c1c(-c2ccc(Cl)cc2)nc2sccn12`: the TGI in assay [1] is 3.13 µM; in assay [2], 8.15 µM; in assay [13], 7.49 µM; in [3], 14.3 µM; in assay [4], 3.72 µM; in [5] it was 31.2 µM. Further, the TGI worked out at 3.39 µM in [6]; 3.9 µM in [7]; 4.24 µM in [8]; 2.99 µM in assay [9]; 7.04 µM in [10]; 3.61 µM in [12].
With `C=CCNC1=C2C[C@@H](C)C[C@@H](OC)[C@H](OC(=O)CCN)[C@H](C)/C=C(\C)[C@@H](OC(N)=O)[C@H](OC)/C=C\C=C(/C)C(=O)NC(=CC1=O)C2=O`, the TGI in [1] is 14.1 µM; in [2], 17.7 µM; in assay [3], greater than 100 µM; in [4] it was 25.5 µM; in assay [5] it was 36.4 µM; in [6], 12.3 µM. Further, the TGI stood at 16.2 µM in [7]; 21.3 µM in assay [8]; 17 µM in assay [9]; 32.5 µM in assay [10]; 17.9 µM in [11]; 9.63 µM in assay [12].
In the case of `O=C1c2cc(Cl)ccc2-n2cnnc2C2CSCN12` (configuration not stated), the TGI in assay [1], in assay [2], in assay [13], in assay [3], in [4] and in assay [5] was greater than 100 µM in each case. Besides, the TGI in assay [6], in [7], in assay [8], in assay [9], in assay [10] and in assay [12] was greater than 100 µM each time.
Regarding `C=CCN1C(=O)C=C(c2ccccc2)n2ncc3cccc1c32`, the TGI in [1], in [2], in assay [13], in [4], in [5] and in [6] was greater than 100 µM throughout. Further, the TGI in assay [7], in assay [9], in assay [10] and in assay [11] was greater than 100 µM each time.
For `O=S1(=O)N=C(SCc2ccccc2)N(c2ccccc2)c2ccncc21`, the TGI in assay [1], in assay [2], in assay [13], in assay [3], in assay [4] and in assay [5] was greater than 100 µM each time. The TGI in assay [6], in assay [7], in assay [8], in assay [9], in assay [11] and in assay [12] was greater than 100 µM in each case.
Regarding `CCOC(=O)c1cccn1S(=O)(=O)c1cc(Cl)ccc1NC(=O)CC`, the TGI in assay [1], in [2], in assay [3], in [5], in assay [6] and in assay [7] was greater than 100 µM in each case. The TGI in [8], in assay [9], in assay [10], in [11] and in [12] was greater than 100 µM each time.
For the compound `COC1(OC)c2no[n+]([O-])c2CCC1O` (configuration not stated), the TGI in assay [1], in assay [2], in assay [13], in assay [3], in assay [4] and in assay [5] was greater than 100 µM each time. Moreover, the TGI in [6], in assay [7], in assay [8], in assay [9] and in [10] was greater than 100 µM each time.
As for `COc1ccc2[nH]cc(CCNC(=O)[C@H](Cc3ccccc3)NC(=O)[C@@H](NCC(F)(F)F)C(C)C)c2c1`, the TGI in [1] is 25.2 µM; in [2], 35.9 µM; in [13], 44 µM; in assay [3], greater than 100 µM; in assay [5] it was 44 µM; in assay [6] it was 36.2 µM. For the same compound, the TGI stood at 49 µM in assay [7]; 32.3 µM in assay [8]; 35.1 µM in [9]; 23.8 µM in [10]; 46.2 µM in [11].
Regarding `O=c1c2c(oc3ccccc13)-c1ccccc1OC2`, the TGI in assay [1] is greater than 100 µM; in [2], 47.4 µM; in assay [13] it was greater than 100 µM; in assay [3], greater than 100 µM; in [4], greater than 100 µM; in assay [5], greater than 100 µM. For the same compound, the TGI in assay [6] was greater than 100 µM; in assay [7] it was greater than 100 µM; in [9] it was 64.2 µM; in assay [10], greater than 100 µM; in assay [12], 50.7 µM.
As to `CC(C)OC(=O)c1ccc(NCc2cc(O)ccc2O)cc1Cl`, the TGI in assay [1] was 34.6 µM; in [2], greater than 54 µM; in assay [13], greater than 49.9 µM; in assay [4], greater than 66.4 µM; in assay [5], 25.5 µM; in assay [6] it was 18.6 µM. Further, the TGI in [7] is 32.2 µM; in [8], 21.9 µM; in [9], 10.8 µM; in assay [12], 31.1 µM.
On to `O=C(Nc1ccc(Cl)cc1)NS(=O)(=O)c1coc2cc(F)ccc2c1=O`, for which the TGI in [1], in [2], in assay [13], in [3], in assay [4] and in assay [5] was greater than 100 µM in each case. The TGI in [6], in assay [7], in assay [8], in [9] and in assay [12] was greater than 100 µM each time.
Turning to `COC(=O)/C=C(/C)n1nc2ccccc2n1`, the TGI in assay [1], in assay [2], in assay [13], in assay [3], in [4] and in assay [5] was greater than 100 µM each time. For the same compound, the TGI in assay [6], in assay [7], in assay [8], in assay [9], in assay [10] and in assay [12] was greater than 100 µM throughout.
As to `N#Cc1c(N)nc(-c2ccc(Cl)cc2)c2c1-c1ccccc1S(=O)(=O)CC2`, the TGI in assay [2], in assay [13], in assay [3], in [4], in [6] and in assay [7] was greater than 100 µM in each case. The TGI in assay [8], in assay [9], in [10] and in assay [12] was greater than 100 µM in each case.
With `COC(=O)C1(CCC(C)=O)CCCCCC1=O` (configuration not stated), the TGI in assay [1], in assay [2], in assay [13], in assay [3], in assay [4] and in [5] was greater than 100 µM throughout. Further, the TGI in assay [6], in assay [7], in assay [8], in assay [9], in assay [10] and in assay [12] was greater than 100 µM throughout.
Regarding `O=[N+]([O-])/C(C(Cl)=C(Cl)Cl)=C(\N1CCOCC1)n1nnc2ccccc21`, the TGI came out at 34.9 µM in assay [1]; 35.1 µM in [2]; 58.7 µM in assay [13]; 40 µM in [4]; 35.2 µM in assay [5]; 46.7 µM in [6]. The TGI in [7] is 42.9 µM; in [8], 76.1 µM; in assay [9], 44.8 µM; in assay [10], greater than 100 µM; in [12], 42.4 µM.
With `O=C1CCCCC/C1=C\c1cccc(Cl)c1`, the TGI in [1] was 50.2 µM; in [2] it was greater than 100 µM; in [13], greater than 100 µM; in assay [4], 68.2 µM; in assay [5] it was greater than 100 µM; in [6], greater than 100 µM. The TGI in assay [7] was greater than 100 µM; in assay [8], 83.3 µM; in assay [9] it was greater than 100 µM; in assay [10], greater than 100 µM; in assay [12] it was greater than 100 µM.
